“Also recorded” adds a separate entry of the source. Where two headings read alike, the source gives them in different places.
What was measured:
[1] = system: MC3T3 E1 osteoblastic cells; experiment: MC3T3 E1 osteoblastic cell assay (cell number / proliferation); type: cell-based
Excerpt: FIGS. 1(A)-1(F) are graphical depictions of screening of fatty acid derivatives identified in brain for proliferative activity in MC3T3 E1 osteoblastic cells. (A), oleoyl-serine (HU-639); (B), palmitoyl-serine; (C), arachidonoyl-serine (HU-362); (D), arachidonoyl-ethanolamide; (E), palmitoyl-ethanolamide; (F), 2-arachidonoylglycerol. Data are mean±SE obtained in 3 culture wells per condition.
FIG. 9 represents methylated oleoyl-serine (HU-639) derivatives α-methyl oleoyl serine (HU-671) and 2-methyl-oleoyl serine (HU-681)) stimulation of MC3T3 E1 osteoblastic cell number at concentration 10- to 100-fold lower than HU-639. Data are mean±SE obtained in 3 culture wells per condition. *, ANOVA, p<0.05 vs. ligand-free control (Cntl).
(§1) Several lipid compounds present in the brain stimulated the proliferation of MC3T3 E1 osteoblast-like cells in vitro (FIG. 1). […] The HU-639 mitogenic effect was confirmed measuring BrdU incorporation in the MC3T3 E1 cells and in primary calvarial osteoblasts (FIG. 4A). […] Typical of some osteoblast mitogenic agents [Miguel et al, 2005], the dose-response curves representing oleoyl-serine (HU-639) activity in culture are bell shaped, with the peak stimulation of cell number followed by reversal of the effect to baseline levels (FIGS. 4A, 4B).
The oleoyl-serine derivatives α-methyl oleoyl serine (HU-671) and 2-methyl-oleoyl serine (HU-681) were tested in the MC3T3 E1 osteoblastic cell assay, HU-671 and HU-681 stimulated cell number with respective peak effects at 10^−12 M and 10^−13 M as compared to 10^−11 M of the parent HU-639 molecule (FIG. 9).

[2] = system: MC3T3 E1 cells; experiment: BrdU incorporation in MC3T3 E1 cells; type: cell-based
Excerpt: as §1

[3] = system: Erk1/2 phosphorylation; experiment: Erk1/2 phosphorylation in osteoblasts; type: cell-based
Excerpt: (§2) FIGS. 4(A)-4(E) represents signaling of oleoyl-serine (HU-639) in osteoblasts. *, ANOVA, p<0.05 vs. oleoyl-serine (HU-639)-free control (Cntl).
as §1

[4] = system: primary calvarial osteoblasts; experiment: BrdU incorporation in primary calvarial osteoblasts; type: cell-based
Excerpt: as §1

[5] = system: ovariectomized (OVX) mice; experiment: Ovariectomy (OVX) mouse model of osteoporosis, microCT and histomorphometry of distal femoral metaphysis; type: in vivo
Procedure: FIG. 6 oleoyl-serine (HU-639) rescues ovariectomy (OVX)-induced trabecular bone loss in mouse distal femoral metaphysis. Mice were OVXed or sham-OVXed and left untreated for 6 weeks to allow for bone loss. Thereafter, OVXed mice were treated by i.p. administration of oleoyl-serine (HU-639), 5 mg/Kg/day for 6 weeks and subjected to qualitative and quantitative analysis by microcomputed tomography. BV/TV, trabecular bone volume density. VEH, ethanol/emulphor/saline solvent. Data are mean±SE obtained in 6-8 mice per condition.
VEH, ethanol/emulphore/saline solvent. Histomorphometric analysis based on vital labeling of newly formed bone by calcein. Data are mean±SE obtained in 6-8 mice per condition. *, ANOVA, p<0.05 vs. Sham-OVX.
VEH, ethanol/emulphore/saline solvent. Osteoclast counts were based on osteoclast specific staining with tartrate-resistant acid phosphatase. Data are mean±SE obtained in 6-8 mice per condition. *, ANOVA, p<0.05 vs. Sham-OVX and OVX/VEH.
Based on the in vitro screening, the in vivo skeletal activity of oleoyl-serine (HU-639) in an ovariectomy (removal of ovaries; OVX) mouse model, the most widely used animal model for osteoporosis, was analyzed. Using this experimental system for testing bone anabolic activity, OVXed mice are left untreated to allow for bone loss to occur, followed by a treatment period intended for reversal of the bone loss [Alexander et al, 2001]. […] To further elucidate the process leading to the oleoyl-serine (HU-639) rescue of OVX-induced bone loss, the same mice were subjected to an analysis of bone formation and resorption by computerized histomorphometry (HM).

[6] = system: Erk1/2 phosphorylation; experiment: Immunoblot analysis of Erk1/2 phosphorylation in preosteoclast-like RAW 264.7 cells; type: cell-based
Excerpt: (§3) (A), number of intact osteoclasts with the use of oleoyl-serine (HU-639); (B), number of apoptotic osteoclasts; (C), representative photomicrograph of culture oleoyl-serine (HU-639)-free control culture; (D), representative photomicrograph of culture treated with 10^−10 M oleoyl-serine (HU-639); (E), immunoblot analysis of Erk1/2 phosphorylation in preosteoclast-like RAW 264.7 cells. (F), RT-PCR analysis of RANKL and OPG expression in bone marrow-derived primary stromal cells. Quantitative data are mean±SE obtained in 3 culture wells per condition. Arrows indicate, apoptotic osteoclasts; *, ANOVA, p<0.05 vs. oleoyl-serine (HU-639)-free control (Cntl).
(§4) This inhibition is likely to have a restraining effect on osteoclast survival [Kim et al, 2009].

[7] = system: osteoclasts; experiment: Osteoclast survival in ex vivo culture of bone marrow-derived monocytes with M-CSF and RANKL; type: cell-based, mouse; conditions: 4 days with M-CSF and RANKL
Excerpt: as §3, §4

[8] = system: RANKL expression; experiment: RT-PCR analysis of RANKL expression in bone marrow-derived primary stromal cells; type: cell-based
Excerpt: as §3, §4

[9] = system: osteoblasts; experiment: Blockade of oleoyl-serine (HU-639) mitogenic activity in osteoblasts; type: cell-based; conditions: MEK inhibitor, inhibition of Erk1/2 phosphorylation
Excerpt: as §2, §1

CCCCCCCC/C=C\CCCCCCCC(=O)NC(C)(CO)C(=O)O (racemic) [HU-671, N-oleoly α-methyl-DL-serine]
concentration of peak effect on cell number [1]: 10^−12 M

CCCCCCCC/C=C\CCCCCCCC(=O)N[C@@H](CO)C(=O)O [HU-639, N-Oleoyl L-Serine]
shape of dose-response curves in culture ([2]; FIGS. 4A, 4B, peak stimulation of cell number followed by reversal to baseline): bell shaped | mitogenic effect by BrdU incorporation ([2]; MC3T3 E1 cells): confirmed | concentration of peak effect on cell number [1]: 10^−11 M | osteoblastic proliferation activity / potency [1]: highest potency | cell number ([1]; at 10^−11 M concentration): more than doubling cell number | osteoblastic proliferation activity / potency ([1]; listed as oleoyl serine): considerably more potent | Erk1/2 phosphorylation [3]: stimulates Erk1/2 phosphorylation | mitogenic effect by BrdU incorporation [4]: confirmed | reversal of bone loss compared with parathyroid hormone (1-34) ([5]; comparison with literature [Alexander et al, 2001]): greater than the reversal of bone volumetric density by parathyroid hormone (1-34) | bone resorption, osteoclast counts (TRAP staining) ([5]; distal femoral metaphyseal trabecular bone): decreasing of osteoclast number; also recorded: markedly inhibited bone resorption | mineral appositional rate (MAR) ([5]; histomorphometry, calcein labeling): stimulated mineral appositional rate | overall trabecular bone formation ([5]; histomorphometry, compared to sham- and vehicle-treated OVXed controls): stimulation of trabecular bone formation; also recorded: stimulation of overall bone formation | difference in trabecular bone volume density (BV/TV) vs controls ([5]; vs vehicle treated OVXed controls (so in the source)): statistically insignificant | Erk phosphorylation [6]: reduced Erk phosphorylation, mainly p42 | osteoclast apoptosis [7]: stimulating osteoclast apoptosis | osteoclast survival (number of intact osteoclasts) [7]: inhibition of osteoclast survival; also recorded: inhibits osteoclast survival | RANKL expression [8]: inhibits RANKL expression

CCCCCCCC/C=C\CCCCCCC(C)C(=O)N[C@@H](CO)C(=O)O (stereo partly drawn) [HU-681, 2-Methyl Oleoyl-L-Serine]
concentration of peak effect on cell number [1]: 10^−13 M

COc1cccc(-c2cc(=O)c3ccccc3o2)c1N [PD98059]
blockade of oleoyl-serine (HU-639) mitogenic activity [9]: blocks the oleoyl-serine (HU-639) mitogenic activity dose-dependently

CCCCC/C=C\C/C=C\C/C=C\C/C=C\CCCC(=O)NCCO [anandamide, arachidonoyl ethanolamide, reference compound]
osteoblastic proliferation activity / potency [1]: some osteoblastic proliferation activity

CCCCC/C=C\C/C=C\C/C=C\C/C=C\CCCC(=O)N[C@@H](CO)C(=O)O [arachidonoyl serine, N-arachidonoyl-serine, reference compound]
osteoblastic proliferation activity / potency [1]: some osteoblastic proliferation activity

CCCCCCCCCCCCCCCC(=O)NCCO [palmitoyl ethanolamide, reference compound]
osteoblastic proliferation activity / potency [1]: some osteoblastic proliferation activity
